{"source": "patent US12115165B2", "about": "“Use of reboxetine to treat narcolepsy” (AXSOME THERAPEUTICS, INC., priority 2018, dated 2024)", "key": {"[1]": {"system": "patients with a diagnosis of narcolepsy with cataplexy", "test": "Phase 2, double-blind, randomized, placebo-controlled, crossover, multicenter trial of reboxetine in patients with narcolepsy", "type": "in vivo, human", "description": "A Phase 2, double-blind, randomized, placebo-controlled, crossover, multicenter trial of reboxetine was carried out in patients with narcolepsy. A total of 21 patients with a diagnosis of narcolepsy with cataplexy were treated for 2 weeks with reboxetine or with placebo, followed by a crossover to the other treatment after a 1-week down-titration and washout period. Reboxetine was administered orally twice daily, with a total daily dose of 8 mg for Week 1 which was escalated to 10 mg for Week 2. Patients were randomized in a 1:1 ratio either to treatment with reboxetine followed by placebo (sequence 1), or to treatment with placebo followed by reboxetine (sequence 2). The average number of cataplexy attacks at baseline was 30. Key assessments were made daily using an electronic diary. The prespecified primary endpoint was the change in the weekly number of cataplexy attacks, averaged over the 2-week treatment period (overall treatment effect). Secondary endpoints included changes in the number of inadvertent naps, cognition, and Epworth Sleepiness Scale. Cognition was assessed using the Ability to Concentrate item of the Narcolepsy Symptom Assessment Questionnaire, a patient reported outcome measure. This item is rated on 5-point scale (1=very good to 5=very poor). All analyses were conducted on an intent-to-treat basis."}, "[2]": {"system": "patient diagnosed as suffering from narcolepsy with cataplexy", "test": "Single-patient examples: reboxetine 5 mg at 8 am and 5 mg at 1 pm for three weeks in narcolepsy with cataplexy", "type": "in vivo, human", "description": "(§1) A person is diagnosed as suffering from narcolepsy with cataplexy. They are given reboxetine and instructed to take 5 mg of reboxetine at 8 am and 5 mg of reboxetine at 1 pm for three weeks. The patient is evaluated prior to treatment, and weekly to determine the MWT score, the number of cataplexy attacks, the PGI-C score, the HAM-D score, the ESS score, the NSAQ score, and the ability to concentrate on the NSAQ. After one week of treatment, the number of cataplexy attacks have decreased by 10-30%.\nas §1, with “30-60%.” for “10-30%.”\nas §1, with “60-100%.” for “10-30%.”\nas §1, with “ESS score has” for “number of cataplexy attacks have”\nas §1, with “ESS score has” for “number of cataplexy attacks have”, “30-60%.” for “10-30%.”\nas §1, with “ESS score has” for “number of cataplexy attacks have”, “60-100%.” for “10-30%.”\nas §1, with “MWT score has” for “number of cataplexy attacks have”\nas §1, with “MWT score has” for “number of cataplexy attacks have”, “30-60%. […]” for “10-30%.”"}, "[3]": {"conditions": "human patients; without controlled release coating; cited from earlier work"}}, "note": "“And” between values parts separate entries of the source, which are not always exact repeats. Identical values can stand only once."}
{"molecule": "CCOc1ccccc1OC(c1ccccc1)C1CNCCO1", "note": "(centres unmarked) [reboxetine]", "values": [{"measurement": "patients with an ability to concentrate that was good to very good (Ability to Concentrate item of the NSAQ)", "setting": "[1]; Week 1, p=0.007 vs placebo", "result": 38.1, "unit": "%"}, {"measurement": "mean reduction from baseline in cataplexy attacks", "setting": "[1]; Week 2", "result": 48.7, "unit": "%"}, {"measurement": "mean reduction of cataplexy attacks per week", "setting": "[1]; Week 2, baseline average 30 attacks, p=0.002 vs placebo", "result": "14.6 cataplexy attacks per week"}, {"measurement": "mean reduction from baseline in the average weekly number of inadvertent naps", "setting": "[1]; Week 2, p<0.001 vs placebo, FIG. 5", "result": 31.8, "unit": "%"}, {"measurement": "proportion of patients achieving a 50% or greater reduction in the weekly number of cataplexy attacks", "setting": "[1]; Week 2, p=0.003 vs placebo, FIG. 2", "result": 76.2, "unit": "%"}, {"measurement": "proportion of patients achieving a 75% or greater reduction in the weekly number of cataplexy attacks", "setting": "[1]; Week 2, p=0.018 vs placebo, FIG. 3", "result": 42.9, "unit": "%"}, {"measurement": "mean reduction from baseline in cataplexy attacks", "setting": "[1]; after 1-week treatment", "result": 43.3, "unit": "%"}, {"measurement": "mean reduction of cataplexy attacks", "setting": "[1]; after 1-week treatment, p<0.001 vs placebo", "result": 13.0, "unit": "cataplexy attacks"}, {"measurement": "patients with reductions in hypnagogic hallucinations", "setting": "[1]; as compared to placebo, FIG. 9", "result": "greater proportion of patients with reductions"}, {"measurement": "patients with reductions in sleep paralysis episodes", "setting": "[1]; as compared to placebo, FIG. 9", "result": "greater proportion of patients with reductions"}, {"measurement": "patients with an ability to concentrate that was good to very good (Ability to Concentrate item of the NSAQ)", "setting": "[1]; end of the 2-week treatment period, 0% at baseline", "result": 42.9, "unit": "%"}, {"measurement": "discontinuations due to adverse events", "setting": "[1]; human, in vivo", "result": "no discontinuations due to adverse events"}, {"measurement": "most commonly reported adverse events", "setting": "[1]; human, in vivo", "result": "anxiety, constipation, and insomnia"}, {"measurement": "safety and tolerability", "setting": "[1]; human, in vivo", "result": "safe and well tolerated"}, {"measurement": "serious adverse events", "setting": "[1]; human, in vivo", "result": "no serious adverse events"}, {"measurement": "reduction in the Epworth Sleepiness Scale (ESS) score from baseline", "setting": "[1]; p=0.003 vs placebo, FIG. 4", "result": 6.0}, {"measurement": "patients reporting improved sleep quality", "setting": "[1]; p=0.007 vs placebo, FIG. 9", "result": 45.0, "unit": "%"}, {"measurement": "patients with 50% or greater reduction in inadvertent naps", "setting": "[1]; p=0.036 vs placebo, FIG. 6", "result": 38.1, "unit": "%"}, {"measurement": "patients reporting a reduction in the number of awakenings at night", "setting": "[1]; p=0.044 vs placebo, FIG. 9", "result": 30.0, "unit": "%"}, {"measurement": "overall percentage of patients experiencing adverse events", "setting": "[1]; placebo 40.0%", "result": 42.9, "unit": "%"}, {"measurement": "reduction from baseline in the mean weekly number of cataplexy attacks, averaged for the 2-week treatment period (overall treatment effect), primary endpoint", "setting": "[1]; vs placebo, p<0.001, 8 mg/day Week 1, 10 mg/day Week 2, oral twice daily, FIG. 1", "result": "highly statistically significant reduction"}, {"measurement": "decrease in ESS score", "setting": "[2]; after one week of treatment", "result": "10-30% and 30-60% and 60-100%"}, {"measurement": "decrease in MWT score", "setting": "[2]; after one week of treatment", "result": "10-30% and 30-60% and 60-100%"}, {"measurement": "decrease in number of cataplexy attacks", "setting": "[2]; after one week of treatment", "result": "10-30% and 30-60% and 60-100%"}, {"measurement": "decrease in ESS score", "setting": "[2]; after three weeks of treatment", "result": "10-30% and 30-60% and 60-100%"}, {"measurement": "decrease in HAM-D score", "setting": "[2]; after three weeks of treatment", "result": "10-30% and 30-60% and 60-100%"}, {"measurement": "decrease in MWT score", "setting": "[2]; after three weeks of treatment", "result": "10-30% and 30-60% and 60-100%"}, {"measurement": "decrease in number of cataplexy attacks", "setting": "[2]; after three weeks of treatment", "result": "10-30% and 30-60% and 60-100%"}, {"measurement": "time to reach a maximum plasma concentration", "setting": "[3]", "result": "2 to 4", "unit": "h"}]}
